ChEMBL document CHEMBL4400508, “Targeted Endocrine Therapy: Design, Synthesis, and Proof-of-Principle of 17β-Hydroxysteroid Dehydrogenase Type 2 Inhibitors in Bone Fracture Healing” (J Med Chem, 2019)

Legend:
in vitro = conditions: human, s9
Description: Half life in human liver S9 fraction in presence of NADPH, UDPGA, PAPS

[1] = biological target: T1, 17-beta-hydroxysteroid dehydrogenase type 1 (Homo sapiens, UniProt P14061)
T1 sequence (P14061 whole entry): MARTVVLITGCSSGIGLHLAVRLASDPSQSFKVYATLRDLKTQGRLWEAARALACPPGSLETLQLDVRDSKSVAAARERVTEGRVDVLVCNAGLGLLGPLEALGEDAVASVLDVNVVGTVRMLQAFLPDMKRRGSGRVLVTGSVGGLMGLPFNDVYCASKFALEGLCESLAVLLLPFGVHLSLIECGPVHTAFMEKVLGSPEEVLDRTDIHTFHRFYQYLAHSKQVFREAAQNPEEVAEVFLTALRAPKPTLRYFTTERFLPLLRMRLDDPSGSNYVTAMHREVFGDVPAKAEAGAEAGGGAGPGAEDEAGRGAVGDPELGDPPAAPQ
Description: Inhibition of human placental cytosolic fraction 17beta-HSD1 using [3H]-E1 as substrate in presence of NAD+ by radio-HPLC analysis

[2] = biological target: T2, Estradiol 17-beta-dehydrogenase 2 (Mus musculus, UniProt P51658); assay: biochemical; format: tissue-based, Liver
T2 sequence (P51658 whole entry): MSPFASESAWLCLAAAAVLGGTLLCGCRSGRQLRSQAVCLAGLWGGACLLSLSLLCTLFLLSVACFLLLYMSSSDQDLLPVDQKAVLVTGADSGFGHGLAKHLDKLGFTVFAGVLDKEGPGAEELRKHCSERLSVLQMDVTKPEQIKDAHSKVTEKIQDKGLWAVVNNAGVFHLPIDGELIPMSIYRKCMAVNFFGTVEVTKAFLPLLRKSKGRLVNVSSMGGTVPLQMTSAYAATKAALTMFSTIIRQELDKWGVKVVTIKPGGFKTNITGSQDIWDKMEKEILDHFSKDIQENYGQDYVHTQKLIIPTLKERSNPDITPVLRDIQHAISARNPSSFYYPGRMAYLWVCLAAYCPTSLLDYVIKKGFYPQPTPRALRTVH
Description: Inhibition of mouse liver homogenate 17beta-HSD2 using [3H]-E2 as substrate in presence of NAD+ by radio-HPLC analysis

[3] = biological target: T3, constitutive androstane receptor (NR1I3); CYP2 induction (Homo sapiens, UniProt Q14994); assay: in vitro
T3 sequence (Q14994 whole entry): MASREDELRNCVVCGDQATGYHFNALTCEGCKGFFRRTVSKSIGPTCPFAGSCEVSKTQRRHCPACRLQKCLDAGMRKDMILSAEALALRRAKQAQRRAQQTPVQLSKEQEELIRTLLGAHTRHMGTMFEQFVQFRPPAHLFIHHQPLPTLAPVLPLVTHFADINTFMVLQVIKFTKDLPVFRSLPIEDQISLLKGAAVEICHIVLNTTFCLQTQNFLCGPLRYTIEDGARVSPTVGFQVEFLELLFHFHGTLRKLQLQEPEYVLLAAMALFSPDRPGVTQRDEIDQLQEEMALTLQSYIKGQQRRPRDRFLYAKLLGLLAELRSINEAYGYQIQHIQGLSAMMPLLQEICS
Description: Agonist activity at recombinant human constitutive androstane receptor assessed as induction of CYP2 at 3.16 uM relative to control

[4] = biological target: T4, PXR (NR1I2); CYP3 induction (Homo sapiens, UniProt O75469); assay: in vitro
T4 sequence (O75469 whole entry): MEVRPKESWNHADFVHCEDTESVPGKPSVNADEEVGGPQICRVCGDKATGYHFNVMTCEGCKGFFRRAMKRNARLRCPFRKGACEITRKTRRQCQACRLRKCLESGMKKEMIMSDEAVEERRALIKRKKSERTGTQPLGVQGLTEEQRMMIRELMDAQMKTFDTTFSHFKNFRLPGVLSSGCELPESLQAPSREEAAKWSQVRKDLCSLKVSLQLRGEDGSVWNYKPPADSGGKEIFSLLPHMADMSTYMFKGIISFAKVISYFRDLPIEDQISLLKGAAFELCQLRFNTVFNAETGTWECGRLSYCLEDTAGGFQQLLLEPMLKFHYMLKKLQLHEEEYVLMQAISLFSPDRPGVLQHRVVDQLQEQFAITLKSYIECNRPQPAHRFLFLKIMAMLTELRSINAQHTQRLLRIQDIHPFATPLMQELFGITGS
Description: Agonist activity at recombinant human PXR assessed as induction of CYP3 at 3.16 uM after 60 mins relative to control

[5] = biological target: T5, 17-beta-hydroxysteroid dehydrogenase type 1 (Mus musculus, UniProt P51656); format: cell-based, HEK293
T5 sequence (P51656 whole entry): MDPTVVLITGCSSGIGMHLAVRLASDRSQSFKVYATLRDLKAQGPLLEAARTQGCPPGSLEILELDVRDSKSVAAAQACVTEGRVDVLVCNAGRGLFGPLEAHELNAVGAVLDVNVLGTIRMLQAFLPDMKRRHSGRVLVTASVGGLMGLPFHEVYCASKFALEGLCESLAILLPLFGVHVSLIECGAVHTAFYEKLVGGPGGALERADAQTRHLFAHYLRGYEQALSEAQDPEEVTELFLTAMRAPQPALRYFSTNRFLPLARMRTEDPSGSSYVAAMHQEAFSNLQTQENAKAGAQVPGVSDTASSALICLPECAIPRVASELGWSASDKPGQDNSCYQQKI
Description: Inhibition of recombinant mouse 17beta-HSD1 expressed in HEK293 cells using [3H]-E1 as substrate in presence of NAD+ by radio-HPLC analysis

[6] = biological target: T6, AhR (aryl hydrocarbon receptor); CYP1 induction (Homo sapiens, UniProt P35869); assay: in vitro; conditions: hepg2
T6 sequence (P35869 whole entry): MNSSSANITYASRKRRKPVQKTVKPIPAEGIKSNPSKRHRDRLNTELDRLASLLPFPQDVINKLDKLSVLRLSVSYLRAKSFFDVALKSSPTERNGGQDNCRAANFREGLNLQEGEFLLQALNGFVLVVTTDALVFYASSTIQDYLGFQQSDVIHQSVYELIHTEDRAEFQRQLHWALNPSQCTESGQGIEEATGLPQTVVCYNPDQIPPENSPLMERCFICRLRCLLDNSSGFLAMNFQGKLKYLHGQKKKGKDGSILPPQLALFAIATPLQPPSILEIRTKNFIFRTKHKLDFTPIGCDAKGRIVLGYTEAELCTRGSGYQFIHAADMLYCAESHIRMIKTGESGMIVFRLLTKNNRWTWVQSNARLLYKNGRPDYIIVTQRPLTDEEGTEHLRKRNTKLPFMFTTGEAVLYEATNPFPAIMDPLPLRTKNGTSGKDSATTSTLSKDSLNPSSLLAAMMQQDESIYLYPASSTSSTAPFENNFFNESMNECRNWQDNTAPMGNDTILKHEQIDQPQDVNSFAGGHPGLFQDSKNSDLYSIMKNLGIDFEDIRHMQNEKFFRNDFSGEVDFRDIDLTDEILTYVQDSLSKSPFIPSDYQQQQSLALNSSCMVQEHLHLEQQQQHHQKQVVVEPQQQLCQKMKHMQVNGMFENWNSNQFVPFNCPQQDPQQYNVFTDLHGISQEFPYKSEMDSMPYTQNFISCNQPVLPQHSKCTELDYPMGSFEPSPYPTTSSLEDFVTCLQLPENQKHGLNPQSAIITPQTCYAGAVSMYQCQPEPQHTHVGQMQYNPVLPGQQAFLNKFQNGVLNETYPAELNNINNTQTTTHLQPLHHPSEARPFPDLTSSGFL
Description: Agonist activity at AhR in human HepG2 assessed as induction of CYP1 at 3.16 uM relative to control

## O=C(c1ccc(-c2cccc(NS(=O)(=O)c3ccc(Cl)cc3)c2)s1)c1cc(F)c(F)c(O)c1F
In vitro
  half-life: 40 min
[1]
  IC50: 0.7 nM
[2]
  IC50: 6.2 nM

## O=C(c1ccc(-c2cccc(NS(=O)(=O)c3ccccc3C(F)(F)F)c2)s1)c1cc(F)c(F)c(O)c1F
In vitro
  half-life: 51 min

## O=C(c1ccc(-c2cccc(NS(=O)(=O)c3ccccc3OC(F)(F)F)c2)s1)c1cc(F)c(F)c(O)c1F
[3]
  activity at 3.16 µM: < 5%
In vitro
  half-life: 60 min
[4]
  activity at 1 h, 3.16 µM: < 5%
[5]
  IC50: 1760 nM
[6]
  activity at 3.16 µM: < 5%

## Cc1cccc(S(=O)(=O)Nc2cccc(-c3ccc(C(=O)c4cc(F)c(F)c(O)c4F)s3)c2)c1
In vitro
  half-life: 28 min
[1]
  IC50: 0.1 nM
[2]
  IC50: 7.9 nM

## Cc1ccc(S(=O)(=O)Nc2cccc(-c3ccc(C(=O)c4cc(F)c(F)c(O)c4F)s3)c2)cc1
In vitro
  half-life: 32 min
[1]
  IC50: 0.1 nM
[2]
  IC50: 9.9 nM

## O=C(c1ccc(-c2cccc(NS(=O)(=O)c3ccccc3)c2)s1)c1c(F)ccc(O)c1F
[1]
  IC50: 1.4 nM
[2]
  IC50: 30.5 nM

## O=C(c1ccc(-c2cccc(NS(=O)(=O)c3cccc(Cl)c3)c2)s1)c1cc(F)c(F)c(O)c1F
In vitro
  half-life: 42 min
[1]
  IC50: 0.8 nM
[2]
  IC50: 5.6 nM

## O=C(c1ccc(-c2cccc(NS(=O)(=O)c3ccccc3)c2)s1)c1c(Cl)ccc(O)c1F
[1]
  IC50: 1.7 nM

## O=C(c1ccc(-c2cccc(NS(=O)(=O)c3ccccc3)c2)s1)c1cccc(O)c1Cl
In vitro
  half-life: < 5 min
[1]
  IC50: 20.3 nM
[2]
  IC50: 2.7 nM

## Cc1c(O)cccc1C(=O)c1ccc(-c2cccc(NS(=O)(=O)c3ccccc3)c2)s1
[1]
  IC50: 306 nM

## O=C(c1ccc(Cl)c(O)c1)c1ccc(-c2cccc(NS(=O)(=O)c3ccccc3)c2)s1
[1]
  IC50: 8.2 nM

## O=C(c1ccc(-c2cccc(NS(=O)(=O)c3ccccc3)c2)s1)c1c(F)ccc(O)c1Cl
In vitro
  half-life: < 5 min
[1]
  IC50: 15.6 nM
[2]
  IC50: 2.7 nM

## O=C(c1ccc(-c2cccc(NS(=O)(=O)c3ccc(F)cc3)c2)s1)c1cc(F)c(F)c(O)c1F
In vitro
  half-life: 32 min
[2]
  IC50: 27.3 nM
